Results as given in patent publication US10030047B2 (Hoffmann-La Roche Inc., priority 2015, dated 2018).

test system: A. baumannii strain ATCC17978; test: 50% growth inhibitory concentration (IC50) determination, Iso-Sensitest broth; format: cell-based; conditions: Acinetobacter baumannii; A. baumannii ATCC17978; Iso-Sensitest medium; OD 600 nm over 16 h; read-out: IC50 ATCC17978
Outline: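 Twofold dilution series (e.g. 50 to 0.097 μM final) in Iso-Sensitest broth, inoculum ~5×10^(5) CFU/ml, incubated at 35±2° C. OD600 read every 20 min over 16 h; IC50 and IC90 calculated during logarithmic growth.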

| Compound | IC50 [µM] |
| --- | --- |
| CN(C)CCNC(=O)c1ccc(-c2ccc(Cl)c3c2CNC(=O)[C@H](Cc2c[nH]c4ccccc24)N(C)C(=O)[C@H](CCCCN)NC(=O)[C@H](CCCN)NCc2cccnc2S3)cc1 [Example 248, 4-[(11S,14S,17S)-14-(4-Amino-butyl)-11-(3-amino-propyl)-25-chloro-17-(1H-indol-3-ylmethyl)-16-methyl-12,15,18-trioxo-2-thia-4,10,13,16,19-pentaaza-tricyclo[19.4.0.0*3,8*]pentacosa-1(25),3(8),4,6,21,23-hexaen-22-yl]-N-(2-dimethylamino-ethyl)-benzamide] | < 0.1 |
| CN1C(=O)[C@H](CCCCN)NC(=O)[C@H](CCCO)NCc2cccnc2Sc2c(Cl)cc(Cl)cc2CNC(=O)[C@@H]1Cc1c[nH]c2ccccc12 [Example 252, (11S,14S,17S)-14-(4-Amino-butyl)-23,25-dichloro-11-(3-hydroxy-propyl)-17-(1H-indol-3-ylmethyl)-16-methyl-2-thia-4,10,13,16,19-pentaaza-tricyclo[19.4.0.0*3,8*]pentacosa-1(25),3(8),4,6,21,23-hexaene-12,15,18-trione] | 0.5 |
| CCCC[C@@H]1NC(=O)[C@H](CCCN)NCc2cccnc2Sc2c(Cl)cc(Cl)cc2CNC(=O)[C@H](Cc2c[nH]c3ccccc23)N(C)C1=O [Example 253, (11S,14S,17S)-11-(3-Amino-propyl)-14-butyl-23,25-dichloro-17-(1H-indol-3-ylmethyl)-16-methyl-2-thia-4,10,13,16,19-pentaaza-tricyclo[19.4.0.0*3,8*]pentacosa-1(25),3(8),4,6,21,23-hexaene-12,15,18-trione] | 4.2 |

Results, then the compound that gave them:

| IC50 [µM] | Compound |
| --- | --- |
| < 0.1 | CN1C(=O)[C@H](CCCCN)NC(=O)[C@H](CCCN)NCc2cccnc2Sc2c(Cl)ccc(-c3ccc(C(=O)NCCN4CCOCC4)cc3)c2CNC(=O)[C@@H]1Cc1c[nH]c2ccccc12 [Example 249, 4-[(11S,14S,17S)-14-(4-Amino-butyl)-11-(3-amino-propyl)-25-chloro-17-(1H-indol-3-ylmethyl)-16-methyl-12,15,18-trioxo-2-thia-4,10,13,16,19-pentaaza-tricyclo[19.4.0.0*3,8*]pentacosa-1(25),3(8),4,6,21,23-hexaen-22-yl]-N-(2-morpholin-4-yl-ethyl)-benzamide] |
| < 0.1 | CN1C(=O)[C@H](CCCCN)NC(=O)[C@H](CCCN)NCc2cccnc2Sc2c(Cl)ccc(-c3ccc(C4CCNCC4)cc3)c2CNC(=O)[C@@H]1Cc1c[nH]c2ccccc12 [Example 250, (11S,14S,17S)-14-(4-Amino-butyl)-1-(3-amino-propyl)-25-chloro-17-(1H-indol-3-ylmethyl)-16-methyl-22-(4-piperidin-4-yl-phenyl)-2-thia-4,10,13,16,19-pentaaza-tricyclo[19.4.0.0*3,8*]pentacosa-1(25),3(8),4,6,21,23-hexaene-12,15,18-trione] |
| < 0.1 | CNCCCC[C@@H]1NC(=O)[C@H](CCCN)NCc2cccnc2Sc2c(Cl)cc(Cl)cc2CNC(=O)[C@H](Cc2c[nH]c3ccccc23)N(C)C1=O [Example 251, (11S,14S,17S)-11-(3-Amino-propyl)-23,25-dichloro-17-(1H-indol-3-ylmethyl)-16-methyl-14-(4-methylamino-butyl)-2-thia-4,10,13,16,19-pentaaza-tricyclo[19.4.0.0*3,8*]pentacosa-1(25),3(8),4,6,21,23-hexaene-12,15,18-trione] |
